Each structure is given as a SMILES string.

The values that follow come from BindingDB's records for doi:10.1016/j.bmcl.2017.03.037 (Rigel Pharmaceuticals, 2017).

A short description of this assay: Induction of nuclear translocation of human GFP-tagged NFATc1 expressed in virus infected primary human skeletal muscle myoblasts after 3 hrs by DAPI staining based assay.
`COCCn1cc(-c2ccncc2)c2ccncc21` displayed an EC50 of 6.9 µM. In turn, `Fc1ccc(Cn2cc(-c3ccncc3)c3ccncc32)cc1` yielded an EC50 of 7.58 µM. As for `Cn1cc(-c2ccncc2)c2ccncc21`, the EC50 worked out at 2.21 µM.

`Nc1nccc(-c2c[nH]c3cnccc23)n1`: it took 4.8 µM to reach a half-maximal effect (EC50).

`c1cc(-c2c[nH]c3cnccc23)ccn1` showed a concentration giving a half-maximal response (EC50) of 2.98 µM. In turn, `c1cc(-c2cn(CCC3CC3)c3cnccc23)ccn1` registered an EC50 of 1.59 µM. `COc1cccc2c(-c3ccnc(N)n3)c[nH]c12`: it took 9.8 µM to reach a half-maximal effect (EC50).

`c1cc(-c2cn(CCCN3CCOCC3)c3cnccc23)ccn1` registered a concentration for a half-maximal effect (EC50) of 6.96 µM.

In turn, `Clc1cnccc1-c1c[nH]c2cnccc12` gave a 50% effective concentration (EC50) of 5.31 µM. The compound `N#Cc1cccc2c(-c3ccnc(N)n3)c[nH]c12` returned a half-maximal effective concentration (EC50) of 21.7 µM. Consider `Cc1cc(-c2c[nH]c3cnccc23)ccn1`, for which the EC50 amounted to 20.8 µM. With `c1ccc2c(-c3c[nH]c4cnccc34)ccnc2c1` the figure was 43 µM; with `Fc1cc(-c2c[nH]c3cnccc23)ccn1`, 4.85 µM; with `CC(C)n1cc(-c2ccncc2)c2ccncc21`, 0.31 µM.
